Measurements from patent US20250084039A1, “4-SUBSTITUTED AMINOISOQUINOLINE DERIVATIVES” (Purdue Research Foundation, priority 2016, published 2025).
Read-outs that look alike come from different tables or passages of the source.

How the values were obtained:
Assay type in all cases: cell-based
K562 = assay: IC50 proliferation assay (Alamar Blue, 72 h)
Experimental: IC50 proliferation assay—Cell lines and primary cells were seeded into 96-well plates the afternoon prior to treatment. Approximately 18 hours later, compounds were semi-serially diluted in dimethyl sulfoxide (DMSO) and then growth medium, and added to cells. Plates were incubated for 72 hours prior to addition of Alamar Blue (Life Technologies, Carlsbad, CA). Plates were read after 4 additional hours of incubation at 37° C. using a Bio-Tek Synergy HT plate reader (Bio-Tek, Winooski, VT). Data was analyzed and graphed using GraphPad Prism Software (Graphpad, La Jolla. CA).
IC50 (proliferation inhibition) against leukemia cell lines MV4-11 and K562. […] MiaPaca-2 (Pancreatic cell line), HLY-1 (Lymphoma cell line), MV4-11 (AML, cell line) and K562 (CML cell line).

MV4-11 = assay: Activity against AML cell line MV4-11 (CellTiter-Blue, 72 h)
Experimental: Cells were added to 96 well plates at 2000 cells per well for adherent lines and 4000 cells per well for suspension lines and kept in an incubator overnight. The following day the plates were treated with compounds to give rise to the final concentrations of; 100 μM, 10 μM, 5 μM 1 μM, 500 nM, 100 nM, 10 nM, […]. The plates were then stored in the incubator for 72 hours. On the third day the cells were assayed with 20 μL of CellTiter—Blue Cell Viability Assay per well and were incubated for 4 hours. After 4 hours' fluorescence intensity was taken on a plate reader: Excitation: 560/10 Emission: 590/10. IC50 analysis was performed on GraphPad Prism 7.

MV-4-11 = assay: Proliferation inhibition at single concentration (CellTiter-Blue); settings: 1 μM compound
HCT116 = assay: as above; settings: 1 μM compound
HeLa = assay: as above; settings: for Percent inhibition of proliferation HeLa: 1 μM compound
Experimental: (§1) Plates were then treated with compound diluted in dimethyl sulfoxide (DMSO) as well as a DMSO control the following day for 72 hours. After this time the plates were then treated with 10 μL of CellTiter-Blue Cell Viability Assay (Promega, Madison, WI) for 4 hours. Then the plates were read on a plate reader (Bio-Tek, Winooski, VT). Data was analyzed on Excel as a percent of the DMSO vehicle.
(§2) Antiproliferative activities against AML cell line, MV4-11 (a FLT3-driven cell line) and three other solid tumors (MCF7, breast, HCT116, colon and HeLa) have been investigated (Tables 6A and 6B and FIG. 10).

MCF-7 = assay: as above; settings: for Percent inhibition of proliferation MCF-7: 1 μM compound
Experimental: as §1, §2

[1] = Table 18, read-out: Inhibition of proliferation of K562 cell lines (CML)
[2] = 72 h, read-out: IC50 against MV4-11/uM
[3] = Homo sapiens, K562, Table 18, read-out: Inhibition of proliferation of K562 cell lines (CML)

| SMILES | Percent inhibition of proliferation MV-4-11 (MV-4-11) | Percent inhibition of proliferation HCT116 (HCT116) | Percent inhibition of proliferation HeLa (HeLa) | Percent inhibition of proliferation MCF-7 (MCF-7) | other results |
| --- | --- | --- | --- | --- | --- |
| Cc1ccc(C(=O)NCCN2CCCC2)cc1C#Cc1c(N)ncc2ccc(Cl)cc12 [HSL41] | – | – | – | – | IC50 (K562; [1]): 30.1 ± 0.19 nM |
| Nc1ncc2ccc(Cl)cc2c1C#Cc1ccc(C(=O)NCCN2CCCCC2)cc1 [HSN137] | 99% | 60% | 20% | 74% | IC50 (MV4-11; [2]): 0.006 µM |
| Nc1ncc2ccc(Cl)cc2c1C#Cc1cccc(C(=O)NCCc2c[nH]cn2)c1 [HSN157] | 96% | 12% | 33% | 21% | – |
| CC(C)(C)OC(=O)NC1CCN(C(=O)c2ccc(C#Cc3c(N)ncc4ccc(Cl)cc34)cc2)CC1 [HSN139] | 95% | 32% | 35% | 60% | – |
| Cc1ccc(C(=O)Nc2ccc(CN3CCN(C)CC3)c(C(F)(F)F)c2)cc1C#Cc1c(N)nc(C)c2ccccc12 [HSN375, 3-((3-amino-1-methylisoquinolin-4-yl)ethynyl)-4-methyl-N-(4-((4-methylpiperazin-1-yl)methyl)-3-(trifluoromethyl)phenyl)benzamide] | – | – | – | – | IC50 (K562; [3]): 8.8 ± 0.4 nM |
| CN(C)CCCCCNC(=O)c1ccc(C#Cc2c(N)ncc3ccc(Cl)cc23)cc1 [HSM1684] | – | – | – | – | IC50 (MV4-11; [2]): 0.071 µM; IC50 (MV4-11; FIG. 1, read-out: anticancer activities (IC50) against MV4-11): 0.071 µM |
| CCN(CC)CC(O)CNC(=O)c1cccc(C#Cc2c(N)ncc3ccc(Cl)cc23)c1 (stereo not shown) [HSN189] | 95% | 7% | 18% | 49% | – |
| CCN(CC)CC(O)CNC(=O)c1ccc(C)c(C#Cc2c(N)ncc3ccc(Cl)cc23)c1 (stereo not shown) [HSN185] | 97% | 67% | 99% | 100% | – |
| Cc1ccc(C(=O)Nc2ccc(CN3CCN(C)CC3)c(C(F)(F)F)c2)cc1C#Cc1c(N)ncc2cc(Cl)c(Cl)cc12 [HSN393, 3-((3-amino-6,7-dichloroisoquinolin-4-yl)ethynyl)-4-methyl-N-(4-((4-methylpiperazin-1-yl)methyl)-3-(trifluoromethyl)phenyl)benzamide] | – | – | – | – | IC50 (K562; [3]): 7.3 ± 0.04 nM |
| COc1cc2nc(N)nc(C#Cc3cc(C(=O)NCc4ccc(OCCN(C)C)cc4)ccc3C)c2cc1OC [HSN317, 3-((2-amino-6,7-dimethoxyquinazolin-4-yl)ethynyl)-N-(4-(2-(dimethylamino)ethoxy)benzyl)-4-methylbenzamide] | – | – | – | – | IC50 (K562; Homo sapiens, K562, 72 h, read-out: IC50 (proliferation inhibition) Cell line - K562): 1480 nM; IC50 (K562; [3]): 1483 ± 0.1 nM |
| Nc1ncc2ccc(Cl)cc2c1C#Cc1ccc(C(=O)NCCc2c[nH]cn2)cc1 [HSN145] | 99% | 35% | 11% | 6% | – |
| Cc1ccc(C(=O)NCCN2CCN(C)CC2)cc1C#Cc1c(N)ncc2ccc(Cl)cc12 [HSL47] | – | – | – | – | IC50 (K562; [1]): 161.1 ± 0.11 nM |
| Nc1ncc2ccc(Cl)cc2c1C#Cc1ccc(C(=O)NCC(O)CN2CCCC2)cc1 (stereo not shown) [HSM1750] | 93% | 20% | 11% | 17% | – |
| Nc1ncc2ccc(Cl)cc2c1C#Cc1ccc(C(=O)N2CCC3(CCNCC3)CC2)cc1 [HSM1773] | 93% | 24% | 24% | 43% | – |
| CN(C)CC(O)CNC(=O)c1cccc(C#Cc2c(N)ncc3ccc(Cl)cc23)c1 (stereo not shown) [HSN161] | 97% | 18% | 70% | 91% | – |
| Nc1ncc2ccc(Cl)cc2c1C#Cc1cccc(C(=O)N2CCC(N)CC2)c1.O=C(O)C(F)(F)F [HSN174] | 85% | 28% | 10% | 40% | – |

| SMILES | Percent inhibition of proliferation MV-4-11 (MV-4-11) | Percent inhibition of proliferation HCT116 (HCT116) | Percent inhibition of proliferation HeLa (HeLa) | Percent inhibition of proliferation MCF-7 (MCF-7) | other results |
| --- | --- | --- | --- | --- | --- |
| Cc1ccc(C(=O)NCCCN2CCCCC2)cc1C#Cc1c(N)ncc2ccc(Cl)cc12 [HSL56] | – | – | – | – | IC50 (K562; [1]): 95.4 ± 0.23 nM |
| CCN(CC)CC(O)CNC(=O)c1ccc(C#Cc2c(N)ncc3ccc(Cl)cc23)cc1 (stereo not shown) [HSN184] | 97% | 38% | 51% | 92% | – |
| N#Cc1cccc(C#Cc2c(N)ncc3ccc(Cl)cc23)c1 [HSM1617] | – | – | – | – | IC50 (MV4-11; [2]): 0.77 µM |
| NCC(O)CNC(=O)c1ccc(C#Cc2c(N)ncc3ccc(Cl)cc23)cc1 (stereo not shown) [HSN177] | 91% | 15% | 1% | 46% | – |
| Cc1ccc(C(=O)NCCN2CCCCC2)cc1C#Cc1cnc(N)c2ccccc12 [HSL58] | – | – | – | – | IC50 (K562; [1]): 94.5 ± 0.1 nM |
| Nc1ncc2ccc(Cl)cc2c1C#Cc1ccc(C(=O)NCCCN2CCOCC2)cc1 [HSM1610] | 90% | 39% | 20% | 29% | – |
| Nc1ncc2ccc(Cl)cc2c1C#Cc1ccc(C2=NC(C3CC3)CN2)cc1 (stereo not shown) [Compound 1703] | – | – | – | – | activity against HeLa in words (HeLa; FIG. 3): potent; activity against MCF-7 in words (MCF-7; FIG. 2): potent |
| Nc1ncc2ccc(Cl)cc2c1C#Cc1cccc(C(=O)NCC(O)CN2CCCC2)c1 (stereo not shown) [HSM1751] | 91% | 32% | 23% | 47% | – |
| Cc1ccc(C(=O)NCCN2CCCCC2)cc1C#Cc1cnc(N)c2ncccc12 [HSL45] | – | – | – | – | IC50 (K562; [1]): 25.3 ± 0.1 nM |
| CN(C)CCOc1ccc(CNC(=O)c2ccc(C#Cc3c(N)ncc4ccc(Cl)cc34)cc2)cc1 [HSN99] | 97% | 20% | 6% | 42% | – |
| Nc1ncc2ccc(Cl)cc2c1C#Cc1ccc(C(=O)NCC(O)CN2CCCCC2)cc1 (stereo not shown) [HSM1725] | – | – | – | – | IC50 (MV4-11; [2]): 0.008 µM |
| CC(C)(C)OC(=O)N1CCN(CCCNC(=O)c2ccc(C#Cc3c(N)ncc4ccc(Cl)cc34)cc2)CC1 [HSM1693] | – | – | – | – | IC50 (MV4-11; [2]): 0.03 µM; IC50 (MV4-11; Table 2, read-out: IC50 (nM) against MV4-11 (AML cell line)): 0.0148 ± 0.0014 µM |
| Cc1ccc(C(=O)NCCN2CCOCC2)cc1C#Cc1c(N)ncc2ccc(Cl)cc12 [HSL43] | – | – | – | – | IC50 (K562; [1]): 10.1 ± 0.1 nM |
| O=C(NCCCN1CCCCC1)c1ccc(C#Cc2cncc3ccccc23)cc1 [HSM1690] | – | – | – | – | IC50 (MV4-11; [2]): 3.09 µM |
| NCCNC(=O)c1ccc(C#Cc2c(N)ncc3ccc(Cl)cc23)cc1 [HSN204] | 77% | 21% | 22% | 20% | – |
| Cc1ccc(C(=O)NCCN2CCCCC2)cc1C#Cc1cnc2cccnn12 [HSL44] | – | – | – | – | IC50 (K562; [1]): 43.5 ± 0.14 nM |
